Measured values as given in patent US20240115654A1, “INTRAVENOUS ADMINISTRATION OF ENGINEERED ANTIMICROBIAL AMPHIPHILIC PEPTIDES” (priority 2021, published 2024).
Values joined by “and” are separate entries in the source; they are usually repeats but may differ in a detail not shown here. Equal entries are not always repeated. Peptide text beside a SMILES is read from it.

Conditions: 1.0 mg/kg, 30 min IV infusion, individual monkeys
Description: Animals will be obtained from the Test Facility's colony of adult male cynomolgus monkeys (Macaca fascicularis) of Chinese origin. Animals will be weighed prior to dosing.
Animals will be fasted a minimum of 2 hours prior to procedures requiring the administration of ketamine anesthesia. The diet will also be supplemented with other nutrients by feeding items such as raisins or fresh fruits that are presented to the animal as part of an environmental enrichment program. Offering items known to cause diarrhea will be avoided.
Intravenous administration will be via 30 minute infusion into a temporary percutaneous catheter placed into a saphenous vein. […]
The peptide will be purified from plasma samples from each macaque using a cation exchange-based solid-phase extraction process. Prior to extraction, a known concentration of a mass-adjusted internal standard (IS) will be added to assess recovery and allow for quantitation. […] Compound plasma concentrations will be determined by comparing to and compensating with co-purified IS peak intensity and validated calibrated standard curves.
Toxicokinetic parameters will be calculated using non-compartmental methods as implemented in the Phoenix® WinNonlin® ver. […] Values below the lower limit of quantitation (BLQ) will be assigned a value of zero for the toxicokinetic calculations. […]

SMILES: C[C@@H](O)[C@H](NC(=O)[C@H](Cc1c[nH]cn1)NC(=O)[C@@H](NC(=O)[C@H](CCCCN)NC(=O)[C@H](CCCCN)NC(=O)[C@@H](NC(=O)[C@H](CCCCN)NC(=O)[C@@H](NC(=O)[C@H](Cc1c[nH]cn1)NC(=O)[C@@H](NC(=O)[C@H](CCCCN)NC(=O)[C@H](CCCCN)NC(=O)[C@@H](NC(=O)[C@H](CCCCN)NC(=O)[C@@H](NC(=O)[C@H](Cc1c[nH]cn1)NC(=O)[C@@H](NC(=O)[C@H](CCCCN)NC(=O)[C@@H](N)CCCCN)[C@@H](C)O)[C@@H](C)O)[C@@H](C)O)[C@@H](C)O)[C@@H](C)O)[C@@H](C)O)[C@@H](C)O)C(=O)N[C@@H](CCCCN)C(=O)O [SEQ ID NO: 13] (H-KKTHTKTKKTHTKTKKTHTK-OH)
- Dose Normalized Cmax: 5000 and 7000 and 6000
